Like-named read-outs stand apart in the source and are kept apart here. Positions of bridges follow the written chain, without caps; N, C: chain ends. Non-standard residues stand in square brackets, D forms with d. Residues, ends and D or L forms follow the SMILES beside them. *: point of attachment. X6 = O=C(CCCO[C@@H]1OC(CO[C@H]2OC(CO[C@H]3OC(CO)[C@@H](O)C(O)C3C[C@H]3OC(COP(=O)(O)O)[C@@H](O)C(O)C3O)[C@@H](O)C(O)C2O)[C@@H](O)C(O[C@H]2OC(CO)[C@@H](O)C(O)C2O[C@H]2OC(COP(=O)(O)O)[C@@H](O)C(O)C2O)C1O)NNC(=O)CO/N=C/c1ccc(C(=O)*)cc1; X7 = O=C(OC[C@@H]1[C@@H]2CCc3c(nnn3CCCCCCO[C@H](O[C@@H](/C=N/OCCO[C@H]3O[C@H](CCP(=O)(O)O)[C@@H](O)[C@H](O)[C@@H]3O)CO)[C@H](O)/C=N\OCCO[C@H]3O[C@H](CCP(=O)(O)O)[C@@H](O)[C@H](O)[C@@H]3O)CC[C@@H]21)*; X2 = CC(=O)N[C@H]1[C@H]2OC[C@](COCCOCCOCCOCCn3cc(COCC(COCc4cn(CCOCCOCCOCCOC[C@@]56CO[C@@H](O5)[C@H](NC(C)=O)[C@@H](O)[C@H]6O)nn4)NC(=O)CCOCCOCCOCCOCCC(=O)*)nn3)(O2)[C@H](O)[C@@H]1O; Bip = N[C@@H](Cc1ccc(-c2ccccc2)cc1)C(=O)O; NMeA = CN[C@@H](C)C(=O)O

One assay concerns the target M6PR (Homo sapiens, UniProt P11717). The assay is described as follows: SPR binding to M6P receptor. An excerpt:
SPR was used to obtain the binding data for M6P receptor ligands compounds (int-CC6), either alone or as part of the bifunctional compound (BFC-2).
(Surface plasmon resonance follows binding to a sensor surface in real time, without labels.)

In another assay the target is T1, human ASGPR1 (Homo sapiens, UniProt P07306).
T1 construct: Recombinant extracellular domain of human ASGPR1 with N-terminal biotinylated Avitag
T1 sequence (P07306 62-291 limits assumed): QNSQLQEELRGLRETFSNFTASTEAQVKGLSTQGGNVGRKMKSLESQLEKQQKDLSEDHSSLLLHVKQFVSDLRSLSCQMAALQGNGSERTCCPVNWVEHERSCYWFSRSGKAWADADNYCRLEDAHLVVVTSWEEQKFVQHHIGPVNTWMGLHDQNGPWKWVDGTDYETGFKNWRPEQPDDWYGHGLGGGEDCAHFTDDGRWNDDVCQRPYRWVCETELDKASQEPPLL
The assay is described as follows: ASGPR1 SPR direct binding (Biacore, SA chip). The procedure: SPR was used to obtain the binding data for ASGP receptor ligand compound (int-CC2), either alone or as part of the bifunctional compounds (BFC-13), (BFC-15) and (BFC16).
(§1) ASGPR1 SPR experiments were performed on either Biacore T200 or Biacore 8K. The assay was optimized for Biacore (Streptavidin) SA chip in running buffer consisting of 20 mM HEPES, 300 mM NaCl, 2 mM CaCl2, 0.01% tween-20, 2% DMSO, pH 7.4. Recombinant extracellular domain of human ASGPR1 with N-terminal biotinylated Avitag was diluted to 20 μg/mL in running buffer, and immobilized onto SA chip after it was preconditioned with at least four 60-second injections at 30 uL/min of 1 M NaCl/40 mM NaOH solution. Protein immobilization level varied from 500 RU to 3500 RU dependent on analytes' molecular weight, for targeted Rmax of 30 RUs. Direct binding of analytes to ASGPR1 was observed when a dose response titration of analytes in 2% DMSO was flown over the immobilized protein. Data analysis was done on either Biacore T200 Evaluation Software or Biacore Insight Evaluation Software.
SPR was used to obtain the binding data for ASGP receptor ligand compounds (int-CC2), either alone or as part of the bifunctional compounds (BFC1).
as §1, with “Biacore” for “Biacore (Streptavidin)”

A further assay concerns the target T2, human PCSK9 (Homo sapiens, UniProt Q8NBP7).
T2 construct: Purified recombinant full length human PCSK9 with C-terminal biotinylated Avitag
The assay is described as follows: SPR binding to biotinylated human PCSK9 (Proteon XPR36). The conditions noted are these: Bifunctional Compound; SPR; read-out: PCSK9 KD. The procedure:
SPR was used to obtain the binding data for PCSK9 receptor ligand compound (C5), either alone or as part of the bifunctional compounds (BFC1), respectively.
SPR Binding experiments were performed on a Proteon XPR36 instrument (Bio-Rad Laboratories). Purified recombinant full length human PCSK9 with C-terminal biotinylated Avitag was used for the assay. Biotinylated human PCSK9 was incubated with fivefold molar excess of bifunctional compound (BFC1) or compound (C5), and immobilized onto a Neutravidin coated sensor chip. (NLC chip, Bio-Rad Laboratories, Inc). After conditioning the chip by injecting running buffer (20 mM Tris pH7.5, 300 mM NaCl, 25 mM CaCl2, 2 mM betamercaptoethanol, 2% DMSO and 0.05% Tween-20) at a flow rate of 0.1 mL/min for 240 s, PCSK9 protein was injected at a protein concentration of 0.02 mg/ml in running buffer with fivefold molar excess of bifunctional compound and a flow rate of 0.03 mL/min followed by 4 washes with running buffer with 1 μM of bifunctional compound (0.1 mL/min for 60 seconds each).
To perform sandwich SPR binding assays, His-ASGPR1 (62-291) protein stocks were diluted with running buffer to a desired concentration. ASGPR was injected at a flow rate of 0.1 mL/min for 240 s and allowed to dissociate for 1200 s. Sensorgrams were recorded for association and dissociation phases. All sensorgrams were processed by subtracting the binding response recorded from a blank control surfaces (or interspot surfaces), followed by subtracting buffer blank injections from the reaction surface. Data were processed with the ProteOn Manager software (version 3.1.0.6, Bio-Rad, Inc.).

A further assay addresses T3, FHR3 (Homo sapiens, UniProt Q02985).
T3 construct: Purified FHR3 with C-terminal biotinylated Avitag was used for the assay
T3 sequence (Q02985 19-330): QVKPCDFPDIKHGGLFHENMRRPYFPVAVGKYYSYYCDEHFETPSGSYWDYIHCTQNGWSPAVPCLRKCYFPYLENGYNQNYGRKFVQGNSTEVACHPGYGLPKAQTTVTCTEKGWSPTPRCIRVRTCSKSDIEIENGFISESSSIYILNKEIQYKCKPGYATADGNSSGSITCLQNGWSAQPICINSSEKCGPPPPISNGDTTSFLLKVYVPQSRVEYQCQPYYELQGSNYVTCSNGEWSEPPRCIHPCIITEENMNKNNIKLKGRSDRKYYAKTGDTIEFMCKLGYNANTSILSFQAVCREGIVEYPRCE
In words: SPR binding to biotinylated FHR3 (Proteon XPR36). The conditions noted are these: Bifunctional Compound. As for the experimental part: SPR was used to obtain the binding data for FHR3 receptor ligands compounds (C12), (C13), (C14), (C15) and (C16), either alone or as part of the bifunctional compounds (BFC13), (BFC14), (BFC15), (BFC16) and (BFC17), respectively.
SPR Binding experiments were performed on a Proteon XPR36 instrument (Bio-Rad Laboratories). Purified FHR3 with C-terminal biotinylated Avitag was used for the assay. Biotinylated FHR3 was incubated with fivefold molar excess of bifunctional compounds (BFC13), (BFC14), (BFC15), (BFC16) or (BFC17), or compounds (C12), (C13), (C14), (C15) or (C16), and immobilized onto a Neutravidin coated sensor chip. (NLC chip, Bio-Rad Laboratories, Inc). […]
To perform sandwich SPR binding assays, His-ASGPR1 (62-291) protein stocks were diluted with running buffer to a desired concentration. […] Sensorgrams were recorded for association and dissociation phases. All sensorgrams were processed by subtracting the binding response recorded from a blank control surfaces (or interspot surfaces), followed by subtracting buffer blank injections from the reaction surface. […]

The mark [1] stands for this setting: Bifunctional Compound (PCSK9 series), Table 9, read-out: ASGPR binding KD.

M6PR, sequence (P11717 whole entry): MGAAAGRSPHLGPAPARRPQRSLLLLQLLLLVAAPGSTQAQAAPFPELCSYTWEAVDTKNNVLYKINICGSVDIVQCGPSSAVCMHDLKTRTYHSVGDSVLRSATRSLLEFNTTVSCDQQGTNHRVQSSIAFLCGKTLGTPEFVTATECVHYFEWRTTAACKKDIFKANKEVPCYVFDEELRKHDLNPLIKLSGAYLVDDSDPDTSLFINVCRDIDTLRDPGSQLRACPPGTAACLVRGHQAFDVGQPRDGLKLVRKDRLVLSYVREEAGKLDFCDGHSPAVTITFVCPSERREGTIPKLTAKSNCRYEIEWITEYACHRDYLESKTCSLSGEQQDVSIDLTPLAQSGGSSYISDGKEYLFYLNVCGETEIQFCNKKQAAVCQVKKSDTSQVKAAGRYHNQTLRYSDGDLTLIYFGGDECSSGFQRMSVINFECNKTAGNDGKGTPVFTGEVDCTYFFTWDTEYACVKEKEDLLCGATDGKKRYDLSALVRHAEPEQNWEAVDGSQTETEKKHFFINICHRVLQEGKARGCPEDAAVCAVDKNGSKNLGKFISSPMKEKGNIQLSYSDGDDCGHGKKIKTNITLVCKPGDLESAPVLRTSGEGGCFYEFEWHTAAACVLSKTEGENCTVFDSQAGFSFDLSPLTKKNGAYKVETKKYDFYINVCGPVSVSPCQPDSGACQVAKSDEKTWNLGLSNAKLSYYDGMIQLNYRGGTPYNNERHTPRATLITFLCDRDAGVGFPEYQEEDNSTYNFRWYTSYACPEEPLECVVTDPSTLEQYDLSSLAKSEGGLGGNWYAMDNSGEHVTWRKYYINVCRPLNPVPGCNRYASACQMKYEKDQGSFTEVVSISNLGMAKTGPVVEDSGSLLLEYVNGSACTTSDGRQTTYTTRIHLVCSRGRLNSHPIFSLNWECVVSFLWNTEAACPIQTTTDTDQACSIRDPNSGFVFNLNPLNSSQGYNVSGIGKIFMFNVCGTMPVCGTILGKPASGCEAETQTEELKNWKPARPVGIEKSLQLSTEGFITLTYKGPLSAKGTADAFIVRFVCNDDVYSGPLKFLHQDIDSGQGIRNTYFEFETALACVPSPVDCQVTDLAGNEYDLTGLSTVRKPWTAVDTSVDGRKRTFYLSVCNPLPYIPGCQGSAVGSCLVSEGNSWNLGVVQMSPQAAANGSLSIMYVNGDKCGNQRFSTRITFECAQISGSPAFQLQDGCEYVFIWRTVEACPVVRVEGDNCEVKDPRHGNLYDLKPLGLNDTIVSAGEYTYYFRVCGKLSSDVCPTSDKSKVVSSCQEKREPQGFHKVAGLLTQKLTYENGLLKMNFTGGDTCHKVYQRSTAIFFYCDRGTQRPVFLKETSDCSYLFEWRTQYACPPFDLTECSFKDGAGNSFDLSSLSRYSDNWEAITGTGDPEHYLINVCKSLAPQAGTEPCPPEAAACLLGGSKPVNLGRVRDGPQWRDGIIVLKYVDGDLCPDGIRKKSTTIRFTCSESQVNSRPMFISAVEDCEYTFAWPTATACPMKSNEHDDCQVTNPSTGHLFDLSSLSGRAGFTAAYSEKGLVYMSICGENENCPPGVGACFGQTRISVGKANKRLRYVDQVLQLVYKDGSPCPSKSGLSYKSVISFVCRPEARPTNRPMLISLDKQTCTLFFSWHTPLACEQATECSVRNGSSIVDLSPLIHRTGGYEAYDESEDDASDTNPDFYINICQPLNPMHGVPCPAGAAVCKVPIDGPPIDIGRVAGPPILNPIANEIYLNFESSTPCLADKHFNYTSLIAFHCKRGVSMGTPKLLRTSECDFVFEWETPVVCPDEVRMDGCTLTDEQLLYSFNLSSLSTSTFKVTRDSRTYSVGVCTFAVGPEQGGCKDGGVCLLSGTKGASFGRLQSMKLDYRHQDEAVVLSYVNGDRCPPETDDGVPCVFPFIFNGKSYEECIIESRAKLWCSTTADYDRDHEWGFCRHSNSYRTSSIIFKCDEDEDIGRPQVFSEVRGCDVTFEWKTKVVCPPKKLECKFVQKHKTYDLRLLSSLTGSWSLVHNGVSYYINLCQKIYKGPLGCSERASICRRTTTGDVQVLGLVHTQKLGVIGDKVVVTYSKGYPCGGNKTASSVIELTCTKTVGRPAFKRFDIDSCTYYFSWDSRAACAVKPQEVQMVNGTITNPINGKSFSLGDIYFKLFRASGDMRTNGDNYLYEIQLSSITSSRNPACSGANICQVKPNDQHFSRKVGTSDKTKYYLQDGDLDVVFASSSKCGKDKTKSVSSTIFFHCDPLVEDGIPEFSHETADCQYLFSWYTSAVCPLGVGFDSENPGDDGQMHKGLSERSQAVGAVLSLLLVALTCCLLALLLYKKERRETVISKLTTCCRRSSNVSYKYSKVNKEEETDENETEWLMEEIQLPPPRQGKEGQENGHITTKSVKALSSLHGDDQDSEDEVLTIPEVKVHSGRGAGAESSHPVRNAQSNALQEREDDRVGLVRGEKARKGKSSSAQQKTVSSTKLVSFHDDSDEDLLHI
T2 sequence (Q8NBP7 153-692): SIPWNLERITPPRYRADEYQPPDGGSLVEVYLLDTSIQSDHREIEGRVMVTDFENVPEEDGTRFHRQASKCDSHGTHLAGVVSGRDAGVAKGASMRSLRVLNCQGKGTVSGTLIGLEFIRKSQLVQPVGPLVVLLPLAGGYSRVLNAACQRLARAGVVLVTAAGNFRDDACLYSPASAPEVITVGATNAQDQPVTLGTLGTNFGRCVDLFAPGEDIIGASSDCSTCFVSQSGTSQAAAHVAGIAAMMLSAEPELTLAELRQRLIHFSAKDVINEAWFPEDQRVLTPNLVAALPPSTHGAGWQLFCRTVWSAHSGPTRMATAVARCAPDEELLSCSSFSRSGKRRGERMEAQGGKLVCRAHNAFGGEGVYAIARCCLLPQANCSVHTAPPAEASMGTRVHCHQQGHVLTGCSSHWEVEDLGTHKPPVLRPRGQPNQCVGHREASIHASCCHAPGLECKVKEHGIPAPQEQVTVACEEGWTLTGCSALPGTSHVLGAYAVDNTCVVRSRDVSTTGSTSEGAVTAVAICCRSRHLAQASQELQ

For `CC(C)[C@@H]1NC(=O)[C@H](Cc2ccccc2)NC(=O)CSC[C@@H](C(=O)NCC(=O)N[C@@H](CCCCNC(=O)c2ccc(/C=N/OCC(=O)NNC(=O)CCCO[C@@H]3OC(CO[C@H]4OC(CO[C@H]5OC(CO)[C@@H](O)C(O)C5C[C@H]5OC(COP(=O)(O)O)[C@@H](O)C(O)C5O)[C@@H](O)C(O)C4O)[C@@H](O)C(O[C@H]4OC(CO)[C@@H](O)C(O)C4O[C@H]4OC(COP(=O)(O)O)[C@@H](O)C(O)C4O)C3O)cc2)C(N)=O)NC(=O)[C@@H]2CCCN2C(=O)[C@H](C)NC(=O)[C@H](CCC(=O)O)NC(=O)[C@H](C)N(C)C(=O)[C@H](Cc2ccc(-c3ccccc3)cc2)NC(=O)[C@H](C)N(C)C(=O)[C@H](Cc2ccc(-c3ccccc3)cc2)NC(=O)[C@H]([C@@H](C)O)NC(=O)[C@H]([C@@H](C)O)NC(=O)[C@@H]2CCCN2C1=O` (stereo partly drawn) [BFC-2] ({CH2CO}-FVPTT[Bip][NMeA][Bip][NMeA]EAPCGK(X6)-NH2; thioether N-13), at M6PR, binding was put at a Kd of 7.19 nM.
With `CC(C)[C@@H]1NC(=O)[C@H](Cc2ccccc2)NC(=O)CSC[C@@H](C(=O)NCC(=O)N[C@@H](CCCCNC(=O)OC[C@@H]2[C@@H]3CCc4c(nnn4CCCCCCO[C@H](O[C@@H](/C=N/OCCO[C@H]4O[C@H](CCP(=O)(O)O)[C@@H](O)[C@H](O)[C@@H]4O)CO)[C@H](O)/C=N\OCCO[C@H]4O[C@H](CCP(=O)(O)O)[C@@H](O)[C@H](O)[C@@H]4O)CC[C@@H]32)C(N)=O)NC(=O)[C@@H]2CCCN2C(=O)[C@H](C)NC(=O)[C@H](CCC(=O)O)NC(=O)[C@H](C)N(C)C(=O)[C@H](Cc2ccc(-c3ccccc3)cc2)NC(=O)[C@H](C)N(C)C(=O)[C@H](Cc2ccc(-c3ccccc3)cc2)NC(=O)[C@H]([C@@H](C)O)NC(=O)[C@H]([C@@H](C)O)NC(=O)[C@@H]2CCCN2C1=O` [BFC-4] ({CH2CO}-FVPTT[Bip][NMeA][Bip][NMeA]EAPCGK(X7)-NH2; thioether N-13), the Kd (in general, the constant that tells how readily two partners part at equilibrium) at M6PR was found to be 110 nM.
As to `CC(=O)N[C@H]1[C@H]2OC[C@](COCCOCCOCCOCCn3cc(COCC(COCc4cn(CCOCCOCCOCCOC[C@@]56CO[C@@H](O5)[C@H](NC(C)=O)[C@@H](O)[C@H]6O)nn4)NC(=O)CCOCCOCCOCCOCCC(=O)NCCCC[C@H](NC(=O)CNC(=O)[C@@H]4CSCC(=O)N[C@@H](Cc5ccccc5)C(=O)N[C@@H](C(C)C)C(=O)N5CCC[C@H]5C(=O)N[C@@H]([C@@H](C)O)C(=O)N[C@@H]([C@@H](C)O)C(=O)N[C@@H](Cc5ccc(-c6ccccc6)cc5)C(=O)N(C)[C@@H](C)C(=O)N[C@@H](Cc5ccc(-c6ccccc6)cc5)C(=O)N(C)[C@@H](C)C(=O)N[C@@H](CCC(=O)O)C(=O)N[C@@H](C)C(=O)N5CCC[C@H]5C(=O)N4)C(N)=O)nn3)(O2)[C@H](O)[C@@H]1O` (stereo partly drawn) [BFC-7] ({CH2CO}-FVPTT[Bip][NMeA][Bip][NMeA]EAPCGK(X2)-NH2; thioether N-13), the Kd came out at 7 nM on human ASGPR1 (setting [1]) and 3.5 nM on human PCSK9.
In the same order, the values of `COC[C@H]1NC(=O)[C@@H](CCCNC(=O)CCCCCCC(=O)NC(COCCC(=O)NCCCNC(=O)CCCCO[C@H]2O[C@@H](CO)[C@@H](O)[C@@H](O)[C@@H]2NC(C)=O)(COCCC(=O)NCCCNC(=O)CCCCO[C@H]2O[C@@H](CO)[C@@H](O)[C@@H](O)[C@@H]2NC(C)=O)COCCC(=O)NCCCNC(=O)CCCCO[C@H]2O[C@@H](CO)[C@@H](O)[C@@H](O)[C@@H]2NC(C)=O)N(Cc2ccc(Cl)cc2Oc2ccc(-c3cnc(CN(C)C)n3C)cc2)C(=O)C[C@H](Cc2ccccc2)C(=O)N(C)[C@@H]2CCCC[C@H]2NC(=O)C[C@@H](Cc2ccc(Cl)cc2)N(C)C1=O` [BFC-10] are 100 nM and 2.3 nM.
With `CC(=O)N[C@H]1[C@H](OCCCCC(=O)NCCCNC(=O)CCOCC(COCCC(=O)NCCCNC(=O)CCCCO[C@@H]2O[C@H](CO)[C@H](O)[C@H](O)[C@H]2NC(C)=O)(COCCC(=O)NCCCNC(=O)CCCCO[C@@H]2O[C@H](CO)[C@H](O)[C@H](O)[C@H]2NC(C)=O)NC(=O)CCOCCOCCOCCOCCOCCOCCOCCOCCOCCC(=O)NCCCC[C@@H]2NC(=O)[C@H](Cc3ccc(O)cc3)NC(=O)[C@H](CC(N)=O)NC(=O)[C@H](C(C)C)NC(=O)[C@H](CO)NC(=O)[C@H](Cc3ccccc3)N(C)C(=O)[C@H](CCCNC(=N)N)NC(=O)[C@H](Cc3ccccc3)NC(=O)CSC[C@@H](C(=O)NCC(N)=O)NC(=O)[C@H](Cc3ccccc3)N(C)C(=O)[C@H](CC(N)=O)NC(=O)[C@@H]3Cc4ccccc4CN3C(=O)[C@H](CC(=O)O)NC(=O)[C@H](CCCNC(=N)N)NC2=O)O[C@H](CO)[C@H](O)[C@@H]1O` [BFC-15], the Kd worked out at 301 nM on FHR3 and 0.45 nM at human ASGPR1 (Bifunctional Compound (FHR3 series), Table 7, read-out: ASGRR KD).
As for `NOCC(=O)NNC(=O)CCCO[C@@H]1OC(CO[C@H]2OC(CO[C@H]3OC(CO)[C@@H](O)[C@H](O)C3O[C@H]3OC(COP(=O)(O)O)[C@@H](O)C(O)[C@H]3O)[C@@H](O)[C@H](O)C2O)[C@@H](O)[C@H](O[C@H]2OC(CO)[C@@H](O)C(O)[C@H]2O[C@H]2OC(COP(=O)(O)O)[C@@H](O)C(O)[C@H]2O)C1O` (stereo partly drawn) [int-CC6], on M6PR (Free Ligand, SPR, read-out: M6PR binding KD), the Kd was determined as 0.327 nM.

The values above are taken from patent publication US12605451B2, “Targeted plasma protein degradation” (Novartis AG, priority 2020, dated 2026).
